Measurements as given in patent US10392347B2, “2,4-dihydroxy-nicotinamides as APJ agonists” (BRISTOL-MYERS SQUIBB COMPANY, priority 2015, dated 2019).

Biological target: T1, human APJ receptor (Homo sapiens, UniProt P35414)
T1 construct: expressed in transfected cells
T1 sequence (P35414 1-380): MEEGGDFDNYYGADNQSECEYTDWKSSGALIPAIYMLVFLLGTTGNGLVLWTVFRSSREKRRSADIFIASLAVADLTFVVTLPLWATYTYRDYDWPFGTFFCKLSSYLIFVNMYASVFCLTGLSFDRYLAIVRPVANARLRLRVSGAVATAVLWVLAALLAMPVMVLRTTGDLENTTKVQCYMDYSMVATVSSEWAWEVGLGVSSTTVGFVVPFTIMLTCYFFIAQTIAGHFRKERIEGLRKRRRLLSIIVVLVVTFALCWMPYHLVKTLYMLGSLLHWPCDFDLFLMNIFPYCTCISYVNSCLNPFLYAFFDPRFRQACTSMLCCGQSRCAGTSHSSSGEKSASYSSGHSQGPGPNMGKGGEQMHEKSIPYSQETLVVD
Assay: Intracellular cAMP accumulation assay (APJ hcAMP, HTRF)
Assay type: cell-based
Settings: Table 4; HEK293 cells stably expressing human APJ, forskolin-stimulated cAMP; read-out: Human cAMP EC50
Outline: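 Inhibition of forskolin (2 μM)-stimulated cAMP, with […], was measured after 30 min compound exposure at room temperature in stably transfected HEK293 cells. HTRF ratios were converted to cAMP via standard curve, and EC50 values came from variable-slope sigmoidal concentration-response fitting.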

Structure (SMILES)	EC50
CCOCc1nc(O)c(C(=O)N2CCN(Cc3cccc(F)c3)CC2)c(O)c1-c1c(OC)cccc1OC [Example 90, 5-(2,6-dimethoxyphenyl)-6-(ethoxymethyl)-3-{4-[(3-fluorophenyl)methyl]piperazine-1-carbonyl}pyridine-2,4-diol]	10 to 100 nM
CCCCc1nc(O)c(C(=O)N2CCN(Cc3ccc(Cl)cc3Cl)CC2)c(O)c1-c1c(OC)cccc1OC [Example 93, 6-butyl-3-{4-[(2,4-dichlorophenyl)methyl]piperazine-1-carbonyl}-5-(2,6-dimethoxyphenyl)pyridine-2,4-diol]	0.01 to 10 nM
CCCCc1nc(O)c(C(=O)N(C)CCNC(=O)c2ccccc2)c(O)c1-c1c(OC)cccc1OC [Example 95, N-(2-{1-[6-butyl-5-(2,6-dimethoxyphenyl)-2,4-dihydroxypyridin-3-yl]-N-methylformamido}ethyl)benzamide]	10 to 100 nM
CCCCc1nc(O)c(C(=O)N2CC[C@@H](c3ccccc3)C2)c(O)c1-c1cc(OC)ccc1OC [Example 96, 6-butyl-5-(2,5-dimethoxyphenyl)-3-[(3S)-3-phenylpyrrolidine-1-carbonyl]pyridine-2,4-diol]	0.01 to 10 nM
CCCCc1nc(O)c(C(=O)N(C)CCOc2ccccc2)c(O)c1-c1c(OC)cccc1OC [Example 99, 6-butyl-5-(2,6-dimethoxyphenyl)-2,4-dihydroxy-N-methyl-N-(2-phenoxyethyl)pyridine-3-carboxamide]	10 to 100 nM
CCCCc1nc(O)c(C(=O)N2CCN(Cc3ccccn3)CC2)c(O)c1-c1c(OC)cccc1OC [Example 101, 6-butyl-5-(2,6-dimethoxyphenyl)-3-[4-(pyridin-2-ylmethyl)piperazine-1-carbonyl]pyridine-2,4-diol]	0.01 to 10 nM

Now from value to compound:

EC50	Structure (SMILES)
10 to 100 nM	CCOCc1nc(O)c(C(=O)N2CCN(Cc3cccc(F)c3)CC2)c(O)c1-c1ccccc1OC [Example 91, 6-(ethoxymethyl)-3-{4-[(3-fluorophenyl)methyl]piperazine-1-carbonyl}-5-(2-methoxyphenyl)pyridine-2,4-diol]
0.01 to 10 nM	CCCCc1nc(O)c(C(=O)N2CCC(Oc3ccccc3)CC2)c(O)c1-c1c(OC)cccc1OC [Example 92, 6-butyl-5-(2,6-dimethoxyphenyl)-3-(4-phenoxypiperidine-1-carbonyl)pyridine-2,4-diol]
0.01 to 10 nM	CCCCc1nc(O)c(C(=O)N2CCN(Cc3cccc(Cl)c3Cl)CC2)c(O)c1-c1c(OC)cccc1OC [Example 94, 6-butyl-3-{4-[(2,3-dichlorophenyl)methyl]piperazine-1-carbonyl}-5-(2,6-dimethoxyphenyl)pyridine-2,4-diol]
0.01 to 10 nM	CCCCc1nc(O)c(C(=O)N2CC[C@H](c3ccccc3)C2)c(O)c1-c1cc(OC)ccc1OC [Example 97, 6-butyl-5-(2,5-dimethoxyphenyl)-3-[(3R)-3-phenylpyrrolidine-1-carbonyl]pyridine-2,4-diol]
0.01 to 10 nM	CCCCc1nc(O)c(C(=O)N2CC(NC(=O)c3ccccc3)C2)c(O)c1-c1c(OC)cccc1OC [Example 98, N-{1-[6-butyl-5-(2,6-dimethoxyphenyl)-2,4-dihydroxypyridine-3-carbonyl]azetidin-3-yl}benzamide]
0.01 to 10 nM	CCCCc1nc(O)c(C(=O)N2CCC(Oc3ccc(Cl)cn3)CC2)c(O)c1-c1c(OC)cccc1OC [Example 100, 6-butyl-3-{4-[(5-chloropyridin-2-yl)oxy]piperidine-1-carbonyl}-5-(2,6-dimethoxyphenyl)pyridine-2,4-diol]
10 to 100 nM	CCCCc1nc(O)c(C(=O)N(C)CCNc2ncc(Cl)cc2F)c(O)c1-c1c(OC)cccc1OC [Example 102, 6-butyl-N-{2-[(5-chloro-3-fluoropyridin-2-yl)amino]ethyl}-5-(2,6-dimethoxyphenyl)-2,4-dihydroxy-N-methylpyridine-3-carboxamide]
0.01 to 10 nM	CCCCc1nc(O)c(C(=O)N2CCN(Cc3cccc(Cl)c3Cl)CC2)c(O)c1-c1cc(OC)ccc1OC [Example 103, 6-butyl-3-{4-[(2,3-dichlorophenyl)methyl]piperazine-1-carbonyl}-5-(2,5-dimethoxyphenyl)pyridine-2,4-diol]
